Experimental data from ChEMBL document CHEMBL1799972, “Grandilodines A-C, biologically active indole alkaloids from Kopsia grandifolia” (J Nat Prod, 2011).

Tests used:
KB = test: Cytotoxicity against vincristine-sensitive human KB cells in presence of 0.1 ug/ml vincristine; type: cell-based
[1] = Cytotoxicity in vincristine-resistant human KB/VJ300 cells in presence of 0.1 ug/ml vincristine; type: cell-based
KB/VJ300 = test: Reversal of multidrug-resistance in vincristine-resistant human KB/VJ300 cells in presence of 0.1 ug/ml vincristine; type: functional, cell-based

With `CC[C@]1(O)C[C@H]2CN(CCc3c([nH]c4ccccc34)[C@@](C(=O)OC)(c3cc4c(cc3OC)N(C=O)[C@H]3[C@@](O)(C(=O)OC)[C@H](OC(C)=O)[C@]5(CC)C=CCN6CC[C@]43[C@@H]65)C2)C1` [VINCRISTINE] the IC50 (KB) was > 25 µg/mL and the IC50 [1] was > 25 µg/mL.
For `COC(=O)N1c2ccccc2[C@]23CCN4C(=O)C=C[C@]45CC[C@]12[C@@H](C5)C(=O)O3` [GRANDILODINE C], the IC50 (KB/VJ300) was 4.11 µg/mL.
Compound `COC(=O)[C@@H]1C[C@]23CCCN2CC[C@]2(C(=O)OC)c4ccccc4N(C(=O)OC)[C@]12CC3` [GRANDILODINE A] has an IC50 (KB/VJ300) of 4.35 µg/mL.
With `COC(=O)N1c2ccccc2[C@]23CCN4CC=C[C@]45CC[C@]12[C@@H](C5)C(=O)O3` [LAPIDILECTINE B] the IC50 (KB/VJ300) was 0.39 µg/mL.
